Reference: BindingDB's records for doi:10.1021/acs.jnatprod.0c00251 (University of Halle-Wittenberg, 2020)
Numbered stars: 1 amine (or outer) side, 2 acyl side, 3 side chain; on linkers, the order of the positions; unused ones are H or OH. Bridge positions count the residues as written; N and C are the ends. Square brackets hold non-standard residues; d marks the D form. Peptide text beside a SMILES is read from it. * marks the point of attachment. Adda = CO[C@@H](Cc1ccccc1)[C@@H](C)/C=C(C)/C=C/[C@H](N[*:1])[C@H](C)C(=O)[*:2]; dAsp(3S-Me) = C[C@H](C(=O)[*:3])[C@@H](N[*:1])C(=O)[*:2]; d(γGlu) = O=C(O)[C@@H](CCC(=O)[*:2])N[*:1]; NMeDha = C=C(NC)C(=O)O; Propargyl = C#CC*

How the values were obtained:
[1] = Substrate activity at OATP1B3 (unknown origin) expressed in HEK293 cells assessed as cytotoxicity incubated for 48 hrs by sulforhodamine B assay
[2] = Substrate activity at OATP1B1 (unknown origin) expressed in HEK293 cells assessed as cytotoxicity incubated for 48 hrs by sulforhodamine B assay

SMILES	EC50 [1]	EC50 [2]
C=C1C(=O)N[C@H](C)C(=O)N[C@@H](Cc2ccc(OCc3cn(-c4cc5ccc(O)cc5oc4=O)nn3)cc2)C(=O)N[C@@H](C(=O)O)[C@H](C)C(=O)N[C@@H](CCCNC(=N)N)C(=O)N[C@@H](/C=C/C(C)=C/[C@H](C)[C@H](Cc2ccccc2)OC)[C@H](C)C(=O)N[C@@H](C(=O)O)CCC(=O)N1C	1.4 nM	1.7 nM
C#CCOc1ccc(C[C@@H]2NC(=O)[C@@H](C)NC(=O)C(=C)N(C)C(=O)CC[C@H](C(=O)O)NC(=O)[C@@H](C)[C@H](/C=C/C(C)=C/[C@H](C)[C@H](Cc3ccccc3)OC)NC(=O)[C@H](CCCNC(=N)N)NC(=O)[C@@H](C)[C@H](C(=O)O)NC2=O)cc1 (R[Adda][d(γGlu)][NMeDha][dA]Y(Propargyl)[dAsp(3S-Me)]-OH; lactam N-7)	2.4 nM	1.1 nM
C=C1C(=O)N[C@H](C)C(=O)N[C@@H](Cc2ccc(O)cc2)C(=O)N[C@@H](C(=O)O)[C@H](C)C(=O)N[C@@H](CCCNC(=N)N)C(=O)N[C@@H](/C=C/C(C)=C/[C@H](C)[C@H](Cc2ccccc2)OC)[C@H](C)C(=O)N[C@@H](C(=O)O)CCC(=O)N1C (R[Adda][d(γGlu)][NMeDha][dA]Y[dAsp(3S-Me)]-OH; lactam N-7)	3 nM	4.5 nM
